Measured values taken from ChEMBL document CHEMBL5230130, “COVID-19 therapy: What weapons do we bring into battle?” (Bioorg Med Chem, 2020).
Values after ≈ are worked out from the molar mass of the structure shown.

Experiments:
SARS-CoV-2 [1] = test: Antiviral activity against SARS-COV 2; type: functional, organism-based; conditions: Severe acute respiratory syndrome coronavirus 2
[2] = Cytotoxicity against human Calu-3 2B4 cells assessed as cell growth inhibition measured after 48 hrs by celltiterglo assay; type: toxicity, cell-based
SARS-CoV-2 [3] = test: Antiviral activity against SARS-COV-2 infected in African green monkey Vero E6 cells assessed as inhibition of viral growth at 6.25 uM relative to control; type: functional; conditions: Severe acute respiratory syndrome coronavirus 2, Vero C1008
[4] = tested on: Middle East respiratory syndrome-related coronavirus; test: Antiviral activity against MERS-CoV infected in human Calu-3 2B4 cells assessed as reduction in virus-induced cytopathic effect incubated for 48 hrs by celltiterglo assay; type: functional, organism-based; conditions: Calu-3 2B4, 48 h
SARS-CoV-2 [5] = test: Antiviral activity against SARS-COV-2 infected in African green monkey Vero E6 cells assessed as inhibition of viral growth at 0.195 uM relative to control; type: functional; conditions: Severe acute respiratory syndrome coronavirus 2, Vero C1008
[6] = tested on: Middle East respiratory syndrome-related coronavirus; test: Antiviral activity against MERS-CoV infected in African green monkey Vero E6 cells assessed as reduction in virus-induced cytopathic effect incubated for 48 hrs by celltiterglo assay; type: functional, organism-based; conditions: Vero C1008, 48 h
SARS-CoV = test: Antiviral activity against SARS-COV infected in African green monkey Vero E6 cells assessed as reduction in virus-induced cytopathic effect incubated for 48 hrs by celltiterglo assay; type: functional, organism-based; conditions: Severe acute respiratory syndrome-related coronavirus, Vero C1008, 48 h
RAW264.7 = test: Anti-inflammatory activity against mouse RAW264.7 cells assessed as reduction in LPS induced IL-6 level by ELISA analysis; type: functional, cell-based
[7] = Inhibition of human enteric coronavirus strain 4408 nucleoprotein
Peritoneal macrophage = test: Anti-inflammatory activity against mouse peritoneal macrophages assessed as reduction in LPS induced IL-6 level by ELISA analysis; type: functional, cell-based
[8] = Inhibition of Bovine coronavirus nucleoprotein
SARS-CoV-2 [9] = test: Antiviral activity against SARS-COV-2 infected in African green monkey Vero E6 cells; type: functional, organism-based; conditions: Severe acute respiratory syndrome coronavirus 2, Vero C1008
SARS-CoV-2 [10] = test: Antiviral activity against SARS-CoV-2 nCoV-2019 BetaCoV/Wuhan/WIV04/2019 infected in African green monkey Vero E6 cells assessed as reduction in virus-induced cytopathic effect incubated for 48 hrs by qRT-PCR analysis; type: functional, organism-based; conditions: Severe acute respiratory syndrome coronavirus 2, nCoV-2019 BetaCoV/Wuhan/WIV04/2019, Vero C1008, 48 h
[11] = Antiviral activity against hCoV-EMC/2012 infected in monkey LLC-MK2 cells assessed as reduction in viral titers; type: functional, Human betacoronavirus 2c EMC/2012
[12] = Antiviral activity against hCoV-EMC/2012 infected in African green monkey Vero cells assessed as reduction in virus-induced cytopathic effect incubated for 24 hrs by […] assay; type: functional, cell-based, Human betacoronavirus 2c EMC/2012; conditions: Middle East respiratory syndrome-related coronavirus
[13] = Cytotoxicity against African green monkey Vero E6 cells assessed as cell growth inhibition measured after 48 hrs by CCK-8 assay; type: toxicity, cell-based, Vero C1008; conditions: chlorocebus sabaeus
Canine coronavirus = test: Antiviral activity against Canine coronavirus S-378 infected in dog A-72 cells; type: functional, organism-based; conditions: Alphacoronavirus 1, S-378, A-72
SARS-CoV-2 [14] = test: Antiviral activity against SARS-COV-2 Australia/VIC01/2020 infected in African green monkey Vero cells by RT-PCR assay; type: functional, organism-based, Severe acute respiratory syndrome coronavirus 2

Compound: CC(=O)N[C@@H]1[C@H](Oc2c3cc4cc2Oc2ccc(cc2Cl)[C@@H](O[C@@H]2O[C@@H](CO)[C@@H](O)[C@H](O)[C@@H]2NC(C)=O)[C@@H]2NC(=O)[C@H](NC(=O)[C@@H]4NC(=O)[C@H]4NC(=O)[C@@H](Cc5ccc(c(Cl)c5)O3)NC(=O)[C@H](N)c3ccc(O)c(c3)Oc3cc(O)cc4c3)c3ccc(O)c(c3)-c3c(O[C@H]4O[C@H](CO)[C@@H](O)[C@@H](O)[C@@H]4O)cc(O)cc3[C@@H](C(=O)O)NC2=O)O[C@@H](CO)[C@@H](O)[C@@H]1O
- IC50 (SARS-CoV-2 [1]): 1.66 µM

Compound: CCC(CC)COC(=O)[C@H](C)N[P@](=O)(OC[C@H]1O[C@@](C#N)(c2ccc3c(N)ncnn23)[C@H](O)[C@@H]1O)Oc1ccccc1
- CC50 at 48 h [2]: 10 µM
- inhibition at 6.25 µM (SARS-CoV-2 [3]): 64.9%
- IC50 [4]: 0.025 µM

Compound: CC[C@H]1CN2CCc3cc(OC)c(OC)cc3[C@@H]2C[C@@H]1C[C@H]1NCCc2cc(OC)c(OC)cc21 [EMETINE]
- inhibition at 0.195 µM (SARS-CoV-2 [5]): 64.9%

Compound: Nc1ccn([C@@H]2O[C@H](CO)[C@@H](O)C2(F)F)c(=O)n1 [GEMCITABINE]
- EC50 [6]: 1.2 µM
- EC50 (SARS-CoV): 4.9 µM

Compound: CC(=O)Oc1ccccc1C(=O)Nc1ncc([N+](=O)[O-])s1 [NITAZOXANIDE]
- IC50 (RAW264.7): 1540 µM
- IC50 [7]: 0.3 µg/mL (≈ 0.976 µM)
- IC50 (Peritoneal macrophage): 2000 µM
- IC50 [8]: 0.3 µg/mL (≈ 0.976 µM)

Compound: COC(=O)C[C@](O)(CCCC(C)(C)O)C(=O)O[C@@H]1C(OC)=C[C@]23CCCN2CCc2cc4c(cc2[C@H]13)OCO4 [OMACETAXINE MEPESUCCINATE]
- EC50 (SARS-CoV-2 [9]): 2.1 µM

Compound: NC(=O)c1ncn([C@@H]2O[C@H](CO)[C@@H](O)[C@H]2O)n1 [RIBAVIRIN]
- EC50 (SARS-CoV-2 [10]): 11000 µM
- TCID50 [11]: 13.7 µg/mL
- IC50 [12]: 41.4 µg/mL (≈ 170 µM)
- CC50 at 48 h [13]: > 400 µM

Compound: O=C(Nc1ncc([N+](=O)[O-])s1)c1ccccc1O [TIZOXANIDE]
- IC50 (Canine coronavirus): 1 µg/mL (≈ 3.77 µM)

Compound: IVERMECTIN
- IC50 (SARS-CoV-2 [14]): 2 µM
